Test results published in patent US4857641A, “C.12 modified erythromycin A derivatives” (Pfizer Inc., priority 1987, dated 1989).
≈ marks a conversion by molar mass, not a printed value. Read-outs that look alike come from different tables or passages of the source.

How the values were obtained:
Test in all cases: in vitro antibacterial activity (MIC), BHI agar dilution
Format in all cases: cell-based
E. coli = E. coli 470, 18 hours at 37° C
Experimental: (§1) The compounds of the formula (3) are tested for in vitro antibacterial activity by standard methods in which the minimum inhibitory concentrations (MIC's) in mcg/ml against one or more microorganisms is measured. One such procedure is the one recommended by the International Collaborative Study on Antibiotic Sensitivity Testing (Ericcson and Sherris, Acta. Pathologica et Microbiologia Scandinav, Supp. 217, Section B: 64-68 [1971]), and employs brain heart infusion (BHI) agar and an inocula replicating device. Overnight growth tubes are diluted 100 fold for use as the standard inoculum (20,000-10,000 cells in approximately 0.002 ml. are placed on the agar surface; 20 ml. of BHI agar/dish). Twelve 2 fold dilutions of the test compound are employed, with initial concentration of the test drug being 200 mcg/ml. Single colonies are disregarded when reading plates after 18 hours at 37° C. The susceptibility (MIC) of the test organism is accepted as the lowest concentration of compound capable of producing complete inhibition of growth as judged by the naked eye.

Neis. sic. = Neis. sic. 000, 18 hours at 37° C
Experimental: as §1

Strep. pneum. = Strep. pneum. 012, 18 hours at 37° C
Experimental: as §1

Staph. epid. = Staph. epid. 111, 18 hours at 37° C
Experimental: as §1

Strep. faec. = Strep. faec. 006, 18 hours at 37° C
Experimental: as §1

Hem. infl. = system: Hem. infl.
Experimental: as §1

Staph. aureus = system: Staph. aureus
Experimental: as §1

Strep. pyog. = system: Strep. pyog.
Experimental: as §1

Pat. mult. = system: Pat. mult.
Experimental: as §1

[1] = Staph. aureus 052, 18 hours at 37° C
[2] = Staph. aureus 110, 18 hours at 37° C
[3] = Escherichia coli, read-out: MIC
[4] = 18 h, Hem. infl. 038, 18 hours at 37° C, read-out: MIC
[5] = 18 h, Hem. infl. 042, 18 hours at 37° C, read-out: MIC
[6] = 18 h, Hem. infl. 073, 18 hours at 37° C, read-out: MIC
[7] = 18 h, Hem. infl. 078, 18 hours at 37° C, read-out: MIC
[8] = 18 h, Hem. infl. 081, 18 hours at 37° C, read-out: MIC
[9] = Staphylococcus aureus, Staph. aureus 005, 18 hours at 37° C, read-out: MIC
[10] = 18 h, Strep. pyog. 054, 18 hours at 37° C, read-out: MIC
[11] = 18 h, Strep. pyog. 203, 18 hours at 37° C, read-out: MIC

Compound	MIC (Staph. aureus; [1])	MIC (Staph. aureus; [2])	MIC (E. coli; [3])	MIC (Neis. sic.; read-out: MIC)	MIC (Staph. epid.; read-out: MIC)	MIC (Strep. faec.; read-out: MIC)	MIC (Hem. infl.; [4])	MIC (Hem. infl.; [5])	MIC (Hem. infl.; [6])	MIC (Hem. infl.; [7])	MIC (Hem. infl.; [8])	MIC (Staph. aureus; [9])	MIC (Strep. pyog.; [10])	MIC (Strep. pyog.; [11])	other results
4"-0-Acetyl-12,12'-anhydro-9-deoxo-11-deoxy-9R,11-(thiocarbonyldioxy)erythromycin A [Compound 3a]	50 µg/mL	50 µg/mL	–	–	–	–	–	–	–	–	–	–	–	–	MIC (E. coli): 6.25 µg/mL; MIC (Neis. sic.): 50 µg/mL; MIC (Strep. pneum.): 3.12 µg/mL; MIC (Staph. epid.): 12.5 µg/mL; MIC (Strep. faec.): 50 µg/mL; MIC (Hem. infl.; Hem. infl. 012, 18 hours at 37° C): > 50 µg/mL; MIC (Hem. infl.; Hem. infl. 038, 18 hours at 37° C): > 50 µg/mL; MIC (Hem. infl.; Hem. infl. 042, 18 hours at 37° C): 50 µg/mL; MIC (Hem. infl.; Hem. infl. 073, 18 hours at 37° C): 50 µg/mL; MIC (Hem. infl.; Hem. infl. 078, 18 hours at 37° C): 50 µg/mL; MIC (Hem. infl.; Hem. infl. 081, 18 hours at 37° C): 50 µg/mL; MIC (Staph. aureus; Staph. aureus 005, 18 hours at 37° C): 50 µg/mL; MIC (Strep. pyog.; Strep. pyog. 054, 18 hours at 37° C): 50 µg/mL; MIC (Strep. pyog.; Strep. pyog. 203, 18 hours at 37° C): 3.12 µg/mL; MIC (Pat. mult.; Pat. mult. 001, BHI agar, 18 hours at 37° C): 25 µg/mL
C=C1C(CC)OC(=O)C(C)C(OC2CC(C)(OC)C(OC(C)=O)C(C)O2)C(C)C(OC2OC(C)CC(N(C)C)C2O)C(C)(O)CC(C)C(O)C(C)C1O (stereo not drawn) [Compound 3b, 4"-O-Acetyl-12,12'anhydro-9-deoxo-9R-hydroxyerythromycin A]	> 50 µg/mL	> 50 µg/mL	25 µg/mL (≈ 32.9 µM)	50 µg/mL (≈ 65.8 µM)	> 50 µg/mL	> 50 µg/mL	50 µg/mL (≈ 65.8 µM)	> 50 µg/mL	> 50 µg/mL	> 50 µg/mL	> 50 µg/mL	> 50 µg/mL	> 50 µg/mL	3.12 µg/mL (≈ 4.11 µM)	MIC (Pat. mult.; 18 h): 25 µg/mL (≈ 32.9 µM)
CCC1OC(=O)C(C)C(OC2CC(C)(OC)C(OC(C)=O)C(C)O2)C(C)C(OC2OC(C)CC(N(C)C)C2O)C(C)(O)CC(C)C(O)C(C)C(O)C1(O)CO (stereo not drawn) [Compound 3d, 4"-O-Acetyl-9-deoxo-9R-12'-dihydroxyerythromycin A]	> 50 µg/mL	> 50 µg/mL	12.5 µg/mL (≈ 15.7 µM)	> 50 µg/mL	> 50 µg/mL	25 µg/mL (≈ 31.5 µM)	> 50 µg/mL	50 µg/mL (≈ 63 µM)	50 µg/mL (≈ 63 µM)	> 50 µg/mL	> 50 µg/mL	> 50 µg/mL	> 50 µg/mL	3.12 µg/mL (≈ 3.93 µM)	MIC (Pat. mult.; Pat. mult. 001, BHI agar, 18 hours at 37° C, read-out: MIC): 50 µg/mL (≈ 63 µM)
